In PMC2680598 (PLoS ONE, 2009):
Values joined by “and” are separate entries in the source; they are usually repeats but may differ in a detail not shown here. Equal entries are not always repeated. “Also recorded” adds a separate entry of the source. Where two headings read alike, the source gives them in different places.

Columns and labels:
[1] = mouse model; no reference given; cited from earlier work
M. tuberculosis H37Rv [2] = conditions: cited from earlier work
M. tuberculosis H37Rv [3] = test: M. tuberculosis H37Rv inhibition assays (MIC); type: cell-based, Mycobacterium tuberculosis; conditions: for MIC: M. tuberculosis H37Rv
mtFabH [4] = target: T1, mtFabH (Mycobacterium tuberculosis, UniProt P9WNG3); test: mtFabH inhibition assay; type: biochemical
FAS-II = FAS-II assay; type: biochemical
Procedure: (§1) The molecules under investigation were designed to inhibit mtFabH in the mycobacterial FAS-II system, with selectivity over the related mammalian FAS-I system. To examine selectivity, the compounds were assessed using the procedures of Brown et al. and Slayden et al..
(§2) FAS-I and FAS-II experiments were conducted as per Slayden et al. (1996) using the 40–80% ammonium sulphate fraction. The standard reaction mixture for the incorporation of radioactivity from [2-^14C]malonyl-CoA into C16 to C24 fatty acids catalysed by FAS-I was composed as follows: 100 mM Tris.HCl pH 7.9, 5 mM EDTA, 5 mM dithiothreitol, 300 µM acetyl-CoA, 100 µM NADPH, 100 µM NADH, 1 µM flavin mononucleotide, 500 µM α-cyclodextrin, 300 µM CoA-SH, 100,000 cpm of [2-^14C] malonyl-CoA (specific activity 53 Ci/mol), test compound (0.5–200 µg/ml) and 2 mg of cytosolic enzyme preparation in a total volume of 500 µl. Similarly, the standard reaction mixture for incorporation of radioactivity from [2-^14C]malonyl-CoA into C24 to C30 fatty acids catalysed by FAS-II contained the following: 100 mM potassium phosphate buffer (pH 7.0), 5 mM EDTA, 5 mM dithiothreitol, 10 µM palmitoyl-CoA, 140 µM NADPH, 140 µM NADH, 100 µg of AcpM, 40 µM malonyl-CoA, 200,000 cpm of [2-^14C]malonyl-CoA (specific activity 53 Ci/mol), test compound (0.5–200 µg/ml) and 200 mg of cytosolic enzyme preparation in a total volume of 250 µl. In both the FAS-I and FAS-II assays, reactions were performed in triplicate at 37°C for 30 min and terminated by the addition of 250 µl of 20% potassium hydroxide in 50% methanol at 100°C for 45 min. Following acidification with 150 µl of 6 M HCl, the resultant ^14C-labelled fatty acids were extracted three times with petroleum ether. The organic extracts were pooled, washed once with an equal volume of water, and dried in a scintillation vial prior to counting.

mtFabH [5] = target: T1, mtFabH; conditions: cited from earlier work
FAS-I = FAS-I assay; type: biochemical
Procedure: as §1
as §2, with “In both the FAS-I and FAS-II assays, reactions were performed in triplicate at 37°C for 30 min and terminated by the addition of 250 µl of 20% potassium hydroxide in 50% methanol at 100°C for 45 min. Following acidification with 150 µl of 6 M HCl, the resultant ^14C-labelled fatty acids were extracted three times with petroleum ether. The organic extracts were pooled, washed once with an equal volume of water, and dried in a scintillation vial prior to counting.” left out

[6] = no reference given; cited from earlier work
[7] = Mycobacterium tuberculosis, read-out: TB MIC
[8] = N/A = no inhibition observed at 200 µg/ml, read-out: mtFabH IC50 (class N/A)
[9] = Mycobacterium tuberculosis, N/A = no inhibition observed at 200 µg/ml, read-out: TB MIC (class N/A)
[10] = read-out: mtFabH IC50 (converted)

T1 sequence (P9WNG3 2-335): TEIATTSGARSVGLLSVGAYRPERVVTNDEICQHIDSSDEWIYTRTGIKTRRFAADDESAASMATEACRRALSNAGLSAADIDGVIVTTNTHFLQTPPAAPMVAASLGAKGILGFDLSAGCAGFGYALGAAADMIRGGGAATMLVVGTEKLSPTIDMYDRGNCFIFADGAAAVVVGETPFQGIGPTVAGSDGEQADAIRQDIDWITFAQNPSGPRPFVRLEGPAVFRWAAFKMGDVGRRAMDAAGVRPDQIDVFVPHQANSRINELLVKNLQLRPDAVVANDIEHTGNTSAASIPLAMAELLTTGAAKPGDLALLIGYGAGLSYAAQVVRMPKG

Compound	inhibition of mtFabH (in words) (mtFabH [4])	IC50 (mtFabH [4]; [8]) [µM]	inhibition of M. tuberculosis H37Rv (in words) (M. tuberculosis H37Rv [3])	MIC (M. tuberculosis H37Rv [3]; [9]) [µg/mL]	melting point [°C]	also measured
C=C/C(C)=C/[C@@]1(C)SC(=O)C(C)=C1O [1 (TLM), thiolactomycin]	–	–	–	–	–	oral availability [1]: orally available; toxicity [1]: non-toxic; MIC (M. tuberculosis H37Rv [2]; listed as TLM): 13 µg/ml and 62.5 µM
COC(=O)c1nc(N)sc1Cc1ccccc1 [Compound 2, methyl 2-amino-5-benzylthiazole-4-carboxylate]	no activity	> 805	–	–	–	MIC (M. tuberculosis H37Rv [3]; read-out: TB MIC): 0.24 µM; MIC (M. tuberculosis H37Rv [3]; [7]): 0.06 µg/mL and 0.24 µM
COC(=O)c1nc(NC(=O)CBr)sc1-c1cccc(Cl)c1 [Compound 3, methyl 2-(2-bromoacetamido)-5-(3-chlorophenyl)thiazole-4-carboxylate]	active against mtFabH	–	not active	> 200	–	inhibition of FAS-II (in words) (FAS-II): selective against FAS-II; IC50 (mtFabH [4]; [10]): 2.44 µM and 2.43 µM
CC1=C(O)C(C)(Cc2ccc(-c3ccc(C(=O)O)cc3)cc2)SC1=O (centres unmarked) [Compound 4]	–	–	–	–	–	IC50 (mtFabH [5]): 3.1 µM and 3 µM
COC(=O)c1nc(N)sc1C [Compound 6, Methyl 2-amino-5-methylthiazole-4-carboxylate]	–	> 1160	–	–	165 to 168	MIC (M. tuberculosis H37Rv [3]; [7]): 16 µg/mL and 93 µM
COC(=O)c1nc(N)sc1-c1ccccc1 [Compound 7, Methyl 2-amino-5-phenylthiazole-4-carboxylate]	–	> 854	inactivity	> 200	218 to 221	–
COC(=O)c1nc(N)sc1-c1cccc(Cl)c1 [Compound 8, Methyl 2-amino-5-(3-chlorophenyl)thiazole-4-carboxylate]	–	> 744	inactive	> 200	229 to 232	–
Cc1sc(N)nc1C(=O)O [Compound 9, 2-amino-5-methylthiazole-4-carboxylic acid]	–	> 1260	–	–	–	MIC (M. tuberculosis H37Rv [3]; [7]): 0.06 µg/mL and 0.35 µM
Nc1nc(C(=O)O)c(-c2ccccc2)s1 [Compound 10, 2-amino-5-phenylthiazole-4-carboxylic acid]	–	> 908	inactive	> 200	242 to 243	–
Nc1nc(C(=O)O)c(-c2cccc(Cl)c2)s1 [Compound 11, 2-amino-5-(3-chlorophenyl)thiazole-4-carboxylic acid]	–	> 785	active	–	242 to 244	MIC (M. tuberculosis H37Rv [3]; [7]): 32 µg/mL and 125 µM
Nc1nc(C(=O)O)c(Cc2ccccc2)s1 [Compound 12, 2-amino-5-benzylthiazole-4-carboxylic acid]	–	> 854	inactive	> 200	300 to 302	–
COC(=O)c1nc(NC(=O)CBr)sc1C [Compound 13, Methyl 2-(2-bromoacetamido)-5-methylthiazole-4-carboxylate]	fails to inhibit	> 682	–	> 200	220 to 222	–
COC(=O)c1nc(NC(=O)CBr)sc1-c1ccccc1 [Compound 14, Methyl 2-(2-bromoacetamido)-5-phenylthiazole-4-carboxylate]	active against mtFabH	–	–	> 200	218 to 220	inhibition of FAS-II (in words) (FAS-II): selective against FAS-II; IC50 (mtFabH [4]; [10]): 3.1 µM and 3.22 µM
COC(=O)c1nc(NC(=O)CBr)sc1Cc1ccccc1 [Compound 15, Methyl 5-benzyl-2-(2-bromoacetamido)thiazole-4-carboxylate]	–	–	–	> 200	218 to 220	inhibition of FAS-I (in words) (FAS-I): failed to inhibit the FAS enzymes; inhibition of FAS-II (in words) (FAS-II): failed to inhibit the FAS enzymes; IC50 (mtFabH [4]; [10]): 160 µM
Cc1sc(NC(=O)CBr)nc1C(=O)O [Compound 16, 2-(2-Bromoacetamido)-5-methylthiazole-4-carboxylic acid]	failed to inhibit	> 717	–	> 200	218 to 220	–
O=C(CBr)Nc1nc(C(=O)O)c(-c2ccccc2)s1 [Compound 17, 2-(2-Bromoacetamido)-5-phenylthiazole-4-carboxylic acid]	failed to inhibit	> 586	–	> 200	208 to 210	–
O=C(CBr)Nc1nc(C(=O)O)c(-c2cccc(Cl)c2)s1 [Compound 18, 2-(2-Bromoacetamido)-5-(3-chlorophenyl)thiazole-4-carboxylic acid]	failed to inhibit; also recorded: inactive	> 532	–	> 200	228 to 230	–
O=C(CBr)Nc1nc(C(=O)O)c(Cc2ccccc2)s1 [Compound 19, 5-Benzyl-2-(2-bromoacetamido)thiazole-4-carboxylic acid]	–	–	–	> 200	220 to 222	inhibition of FAS-I (in words) (FAS-I): inhibited both FAS-I and FAS-II; inhibition of FAS-II (in words) (FAS-II): inhibited both FAS-I and FAS-II; IC50 (mtFabH [4]; [10]): 633 µM and 718 µM
NNC(=O)c1ccncc1 [INH, isoniazid]	–	–	–	–	–	logP [6]: −1.1; MIC (M. tuberculosis H37Rv [2]): 0.25 µg/ml and 1.8 µM
